These are literature values, as cited in patent US20260191206A1, “SYNERGISTIC INSECTICIDAL COMPOSITION COMPRISING PHTHALIMIDE COMPOUNDS AND THE USE THEREOF” (COUNCIL OF SCIENTIFIC AND INDUSTRIAL RESEARCH AN INDIAN …, priority 2022, published 2026).

This series has as its system trehalose 6-phosphate phosphatase. Conditions: Cross et al, Sci Rep 9, 16165 (2019).

Regarding `O=C1c2ccccc2C(=O)N1Sc1ccccc1` [NPP, N-(Phenylthio) phthalimide], the “inhibition of trehalose 6-phosphate phosphatase” value is “inhibit”.
